Values quoted from earlier work as cited in US6631329B1, “Use of the crystal structure of Staphylococcus aureus isoleucyl-tRNA synthetase in antibiotic design” (Yale University, priority 1999, dated 2003).

Experiments:
[1] = test system: Pseudomonic fluoscenes (Psefl) enzyme; settings: SA IRS vs Pseudomonic fluoscenes enzyme
MRSA [2] = settings: in vivo
[3] = biological target: T1, isoleucyl-tRNA synthetase (IRS) (Staphylococcus aureus, UniProt P41972); settings: with respect to isoleucine
T1 sequence (P41972 1-917): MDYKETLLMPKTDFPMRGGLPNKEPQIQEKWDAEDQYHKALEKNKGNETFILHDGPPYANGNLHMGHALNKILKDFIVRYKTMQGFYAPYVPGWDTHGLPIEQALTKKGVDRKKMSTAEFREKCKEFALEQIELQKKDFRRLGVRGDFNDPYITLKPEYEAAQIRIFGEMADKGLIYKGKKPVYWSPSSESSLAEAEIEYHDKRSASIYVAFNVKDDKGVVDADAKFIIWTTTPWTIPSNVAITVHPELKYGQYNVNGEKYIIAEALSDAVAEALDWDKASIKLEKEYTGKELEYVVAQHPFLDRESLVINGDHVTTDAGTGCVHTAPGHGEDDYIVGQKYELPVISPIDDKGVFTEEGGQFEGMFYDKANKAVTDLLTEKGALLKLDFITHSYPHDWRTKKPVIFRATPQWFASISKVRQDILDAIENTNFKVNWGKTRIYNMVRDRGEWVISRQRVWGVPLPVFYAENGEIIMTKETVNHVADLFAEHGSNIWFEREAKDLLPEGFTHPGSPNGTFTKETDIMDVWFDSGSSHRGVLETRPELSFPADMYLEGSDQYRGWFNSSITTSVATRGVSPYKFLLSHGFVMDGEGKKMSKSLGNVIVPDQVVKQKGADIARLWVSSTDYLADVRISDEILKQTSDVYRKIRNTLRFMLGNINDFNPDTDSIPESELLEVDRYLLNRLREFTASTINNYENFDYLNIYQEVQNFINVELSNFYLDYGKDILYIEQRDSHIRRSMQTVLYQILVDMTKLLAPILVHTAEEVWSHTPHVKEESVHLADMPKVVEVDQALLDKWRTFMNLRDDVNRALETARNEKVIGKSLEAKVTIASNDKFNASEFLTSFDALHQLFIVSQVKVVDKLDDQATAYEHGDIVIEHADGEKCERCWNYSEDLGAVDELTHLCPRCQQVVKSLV

MRSA [4] = settings: topical use
[5] = biological target: T2, human isoleucyl-tRNA synthetase (Homo sapiens, UniProt P41252)
T2 sequence (P41252 1-1262): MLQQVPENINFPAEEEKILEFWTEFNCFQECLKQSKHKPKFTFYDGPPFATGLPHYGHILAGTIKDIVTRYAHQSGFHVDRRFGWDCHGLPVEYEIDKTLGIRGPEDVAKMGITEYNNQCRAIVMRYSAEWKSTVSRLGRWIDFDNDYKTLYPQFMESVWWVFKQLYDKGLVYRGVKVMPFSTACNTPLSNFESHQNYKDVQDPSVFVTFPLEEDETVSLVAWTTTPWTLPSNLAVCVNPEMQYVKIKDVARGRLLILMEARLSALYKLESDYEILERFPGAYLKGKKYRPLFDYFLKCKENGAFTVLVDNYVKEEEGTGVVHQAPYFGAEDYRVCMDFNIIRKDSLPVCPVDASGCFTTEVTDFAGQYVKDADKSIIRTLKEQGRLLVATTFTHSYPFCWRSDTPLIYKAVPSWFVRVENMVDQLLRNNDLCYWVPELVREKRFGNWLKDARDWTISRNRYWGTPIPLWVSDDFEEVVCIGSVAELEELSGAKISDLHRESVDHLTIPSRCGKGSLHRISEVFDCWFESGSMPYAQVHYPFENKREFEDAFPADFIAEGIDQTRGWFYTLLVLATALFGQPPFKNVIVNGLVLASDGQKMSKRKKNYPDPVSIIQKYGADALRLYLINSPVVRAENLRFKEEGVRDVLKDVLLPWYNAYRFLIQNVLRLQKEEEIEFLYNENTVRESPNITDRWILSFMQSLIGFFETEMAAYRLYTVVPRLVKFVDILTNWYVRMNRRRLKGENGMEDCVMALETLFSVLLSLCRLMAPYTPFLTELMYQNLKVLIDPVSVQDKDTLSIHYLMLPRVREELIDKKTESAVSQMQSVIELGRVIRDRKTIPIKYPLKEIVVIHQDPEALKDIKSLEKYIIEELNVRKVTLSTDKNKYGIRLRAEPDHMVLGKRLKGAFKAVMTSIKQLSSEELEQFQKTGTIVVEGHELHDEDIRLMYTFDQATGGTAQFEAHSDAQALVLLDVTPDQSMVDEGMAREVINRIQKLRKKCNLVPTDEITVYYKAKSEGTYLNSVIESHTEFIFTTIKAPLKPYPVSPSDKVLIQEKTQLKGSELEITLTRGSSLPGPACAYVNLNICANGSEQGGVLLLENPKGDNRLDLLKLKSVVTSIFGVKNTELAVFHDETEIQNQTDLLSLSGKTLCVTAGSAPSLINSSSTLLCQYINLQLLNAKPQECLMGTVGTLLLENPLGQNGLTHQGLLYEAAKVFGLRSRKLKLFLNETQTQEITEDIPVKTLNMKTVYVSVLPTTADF

[6] = biological target: MURSA isoleucyl-tRNA synthetase (Staphylococcus aureus, UniProt P41368)
MRSA [7] = test system: MRSA
[8] = test system: Gram-negative bacterial IRS; settings: many Gram-negative bacterial IRS

clearance in the urine (in vivo) | Compound | activity of the metabolite (in vivo) | half-life in vivo (metabolic conversion from pseudomonic acid to monic acid) | difference in inhibition between SA IRS and Psefl enzyme [1] | effectiveness against bacteremia caused by MRSA (MRSA [2]) | mode of inhibition of IRS [3] | eradication of nasal carriage of MRSA (MRSA [4]) | eradication of MRSA in skin and virginal infections (MRSA [4]; after failure of intervenous vancomycin therapy) | sensitivity of human isoleucyl-tRNA synthetase to the antibiotic [5] | concentration for binding the human enzyme relative to bacterial IRS ([5]; higher than for bacterial IRS) | sensitivity of MURSA isoleucyl-tRNA synthetase to the antibiotic [6] | effectiveness against MRSA (MRSA [7]) | concentration at which mupirocin inhibits bacterial IRS [8]
rapidly cleared | C/C(=C\C(=O)O)C[C@@H]1OC[C@H](C[C@@H]2O[C@H]2[C@@H](C)[C@H](C)O)[C@@H](O)[C@H]1O [monic acid] | inactive |  |  |  |  |  |  |  |  |  |  | 
 | C/C(=C\C(=O)OCCCCCCCCC(=O)O)C[C@@H]1OC[C@H](C[C@@H]2O[C@H]2[C@@H](C)[C@H](C)O)[C@@H](O)[C@H]1O [Mupirocin, mupirocin] |  | short | 10^6 | not very effective | competitive inhibitor for isoleucine | very successfully eradicated | eradicated | resistant | 3 to 4 orders of magnitude | resistant | highly effective | nM concentrations
